Laboratory results as given in the NIST ThermoML archive (doi:10.1021/je020149l).
± gives the expanded uncertainty stated by the source.

Assays:
[1] = 293.15 K; 101.33 kPa; Liquid; Vibrating tube method
[2] = excess molar enthalpy (molar enthalpy of mixing); xn = mol fraction of the nth substance listed; conditions: 323.15 K, 101 kPa, Liquid, Flow calorimetry

CC(C)=O [acetone]
mass density [1]: 790.31 ± 0.25 kg/m3

CC(C)=O [acetone] + CCCO
excess molar enthalpy ([2]; x2 = 0.025): 0.0605 ± 0.00191 kcal/mol | excess molar enthalpy ([2]; x2 = 0.052): 0.0968 ± 0.00239 kcal/mol | excess molar enthalpy ([2]; x2 = 0.101): 0.154 ± 0.00359 kcal/mol | excess molar enthalpy ([2]; x2 = 0.151): 0.202 ± 0.00454 kcal/mol | excess molar enthalpy ([2]; x2 = 0.2): 0.245 ± 0.00526 kcal/mol | excess molar enthalpy ([2]; x2 = 0.252): 0.282 ± 0.00598 kcal/mol | excess molar enthalpy ([2]; x2 = 0.302): 0.311 ± 0.00669 kcal/mol | excess molar enthalpy ([2]; x2 = 0.351): 0.334 ± 0.00717 kcal/mol | excess molar enthalpy ([2]; x2 = 0.401): 0.349 ± 0.00741 kcal/mol | excess molar enthalpy ([2]; x2 = 0.451): 0.359 ± 0.00765 kcal/mol | excess molar enthalpy ([2]; x2 = 0.501): 0.363 ± 0.00765 kcal/mol | excess molar enthalpy ([2]; x2 = 0.551): 0.361 ± 0.00765 kcal/mol | excess molar enthalpy ([2]; x2 = 0.601): 0.354 ± 0.00765 kcal/mol | excess molar enthalpy ([2]; x2 = 0.651): 0.34 ± 0.00717 kcal/mol | excess molar enthalpy ([2]; x2 = 0.702): 0.32 ± 0.00693 kcal/mol | excess molar enthalpy ([2]; x2 = 0.752): 0.295 ± 0.00645 kcal/mol | excess molar enthalpy ([2]; x2 = 0.8): 0.265 ± 0.00574 kcal/mol | excess molar enthalpy ([2]; x2 = 0.851): 0.223 ± 0.00478 kcal/mol | excess molar enthalpy ([2]; x2 = 0.901): 0.168 ± 0.00382 kcal/mol | excess molar enthalpy ([2]; x2 = 0.952): 0.112 ± 0.00263 kcal/mol | excess molar enthalpy ([2]; x2 = 0.975): 0.0803 ± 0.00215 kcal/mol

CC(C)=O [acetone] + CCO
excess molar enthalpy ([2]; x2 = 0.05): 0.0609 ± 0.00167 kcal/mol | excess molar enthalpy ([2]; x2 = 0.102): 0.115 ± 0.00263 kcal/mol | excess molar enthalpy ([2]; x2 = 0.15): 0.156 ± 0.00335 kcal/mol | excess molar enthalpy ([2]; x2 = 0.2): 0.192 ± 0.0043 kcal/mol | excess molar enthalpy ([2]; x2 = 0.252): 0.222 ± 0.00478 kcal/mol | excess molar enthalpy ([2]; x2 = 0.3): 0.243 ± 0.00526 kcal/mol | excess molar enthalpy ([2]; x2 = 0.352): 0.259 ± 0.0055 kcal/mol | excess molar enthalpy ([2]; x2 = 0.4): 0.269 ± 0.00574 kcal/mol | excess molar enthalpy ([2]; x2 = 0.452): 0.273 ± 0.00598 kcal/mol | excess molar enthalpy ([2]; x2 = 0.501): 0.272 ± 0.00574 kcal/mol | excess molar enthalpy ([2]; x2 = 0.551): 0.265 ± 0.00574 kcal/mol | excess molar enthalpy ([2]; x2 = 0.6): 0.255 ± 0.0055 kcal/mol | excess molar enthalpy ([2]; x2 = 0.65): 0.24 ± 0.00526 kcal/mol | excess molar enthalpy ([2]; x2 = 0.702): 0.22 ± 0.00478 kcal/mol | excess molar enthalpy ([2]; x2 = 0.752): 0.196 ± 0.0043 kcal/mol | excess molar enthalpy ([2]; x2 = 0.8): 0.168 ± 0.00359 kcal/mol | excess molar enthalpy ([2]; x2 = 0.85): 0.134 ± 0.00311 kcal/mol | excess molar enthalpy ([2]; x2 = 0.901): 0.0937 ± 0.00215 kcal/mol | excess molar enthalpy ([2]; x2 = 0.95): 0.0504 ± 0.00143 kcal/mol

C1CCCCC1 [cyclohexane]
mass density [1]: 778.56 ± 0.25 kg/m3

C1CCCCC1 [cyclohexane] + CCO
excess molar enthalpy ([2]; x2 = 0.032): 0.106 ± 0.00263 kcal/mol | excess molar enthalpy ([2]; x2 = 0.054): 0.132 ± 0.00311 kcal/mol | excess molar enthalpy ([2]; x2 = 0.102): 0.169 ± 0.00359 kcal/mol | excess molar enthalpy ([2]; x2 = 0.151): 0.192 ± 0.00406 kcal/mol | excess molar enthalpy ([2]; x2 = 0.202): 0.207 ± 0.00454 kcal/mol | excess molar enthalpy ([2]; x2 = 0.251): 0.217 ± 0.00478 kcal/mol | excess molar enthalpy ([2]; x2 = 0.3): 0.223 ± 0.00478 kcal/mol | excess molar enthalpy ([2]; x2 = 0.351): 0.226 ± 0.00478 kcal/mol | excess molar enthalpy ([2]; x2 = 0.401): 0.226 ± 0.00478 kcal/mol | excess molar enthalpy ([2]; x2 = 0.452): 0.223 ± 0.00478 kcal/mol | excess molar enthalpy ([2]; x2 = 0.5): 0.217 ± 0.00478 kcal/mol | excess molar enthalpy ([2]; x2 = 0.551): 0.209 ± 0.00454 kcal/mol | excess molar enthalpy ([2]; x2 = 0.601): 0.198 ± 0.0043 kcal/mol | excess molar enthalpy ([2]; x2 = 0.65): 0.185 ± 0.00406 kcal/mol | excess molar enthalpy ([2]; x2 = 0.707): 0.165 ± 0.00359 kcal/mol | excess molar enthalpy ([2]; x2 = 0.75): 0.15 ± 0.00335 kcal/mol | excess molar enthalpy ([2]; x2 = 0.802): 0.127 ± 0.00287 kcal/mol | excess molar enthalpy ([2]; x2 = 0.851): 0.101 ± 0.00239 kcal/mol | excess molar enthalpy ([2]; x2 = 0.901): 0.0722 ± 0.00167 kcal/mol | excess molar enthalpy ([2]; x2 = 0.951): 0.038 ± 0.0012 kcal/mol

CCO [ethanol]
mass density [1]: 789.29 ± 0.25 kg/m3

CCCCCCC [heptane]
mass density [1]: 683.91 ± 0.4 kg/m3

CCCCCCC [heptane] + CCCO
excess molar enthalpy ([2]; x2 = 0.01): 0.0963 ± 0.00382 kcal/mol | excess molar enthalpy ([2]; x2 = 0.024): 0.142 ± 0.00406 kcal/mol | excess molar enthalpy ([2]; x2 = 0.034): 0.161 ± 0.00382 kcal/mol | excess molar enthalpy ([2]; x2 = 0.053): 0.188 ± 0.00406 kcal/mol | excess molar enthalpy ([2]; x2 = 0.103): 0.229 ± 0.00502 kcal/mol | excess molar enthalpy ([2]; x2 = 0.154): 0.254 ± 0.0055 kcal/mol | excess molar enthalpy ([2]; x2 = 0.203): 0.269 ± 0.00574 kcal/mol | excess molar enthalpy ([2]; x2 = 0.254): 0.279 ± 0.00598 kcal/mol | excess molar enthalpy ([2]; x2 = 0.301): 0.283 ± 0.00598 kcal/mol | excess molar enthalpy ([2]; x2 = 0.353): 0.282 ± 0.00598 kcal/mol | excess molar enthalpy ([2]; x2 = 0.402): 0.277 ± 0.00598 kcal/mol | excess molar enthalpy ([2]; x2 = 0.451): 0.27 ± 0.00574 kcal/mol | excess molar enthalpy ([2]; x2 = 0.503): 0.26 ± 0.0055 kcal/mol | excess molar enthalpy ([2]; x2 = 0.551): 0.247 ± 0.00526 kcal/mol | excess molar enthalpy ([2]; x2 = 0.602): 0.232 ± 0.00502 kcal/mol | excess molar enthalpy ([2]; x2 = 0.651): 0.214 ± 0.00454 kcal/mol | excess molar enthalpy ([2]; x2 = 0.702): 0.195 ± 0.0043 kcal/mol | excess molar enthalpy ([2]; x2 = 0.75): 0.174 ± 0.00382 kcal/mol | excess molar enthalpy ([2]; x2 = 0.801): 0.147 ± 0.00311 kcal/mol | excess molar enthalpy ([2]; x2 = 0.851): 0.124 ± 0.00263 kcal/mol | excess molar enthalpy ([2]; x2 = 0.901): 0.0987 ± 0.00215 kcal/mol | excess molar enthalpy ([2]; x2 = 0.951): 0.0717 ± 0.00167 kcal/mol

CCCCCCCC [octane]
mass density [1]: 702.87 ± 0.41 kg/m3

CCCCCCCC [octane] + CCCO
excess molar enthalpy ([2]; x2 = 0.027): 0.202 ± 0.00478 kcal/mol | excess molar enthalpy ([2]; x2 = 0.053): 0.254 ± 0.00574 kcal/mol | excess molar enthalpy ([2]; x2 = 0.103): 0.31 ± 0.00669 kcal/mol | excess molar enthalpy ([2]; x2 = 0.15): 0.337 ± 0.00717 kcal/mol | excess molar enthalpy ([2]; x2 = 0.208): 0.359 ± 0.00765 kcal/mol | excess molar enthalpy ([2]; x2 = 0.254): 0.367 ± 0.00789 kcal/mol | excess molar enthalpy ([2]; x2 = 0.301): 0.37 ± 0.00789 kcal/mol | excess molar enthalpy ([2]; x2 = 0.352): 0.367 ± 0.00789 kcal/mol | excess molar enthalpy ([2]; x2 = 0.401): 0.363 ± 0.00765 kcal/mol | excess molar enthalpy ([2]; x2 = 0.452): 0.351 ± 0.00741 kcal/mol | excess molar enthalpy ([2]; x2 = 0.5): 0.337 ± 0.00717 kcal/mol | excess molar enthalpy ([2]; x2 = 0.55): 0.32 ± 0.00693 kcal/mol | excess molar enthalpy ([2]; x2 = 0.602): 0.297 ± 0.00645 kcal/mol | excess molar enthalpy ([2]; x2 = 0.652): 0.268 ± 0.00574 kcal/mol | excess molar enthalpy ([2]; x2 = 0.702): 0.242 ± 0.00526 kcal/mol | excess molar enthalpy ([2]; x2 = 0.752): 0.214 ± 0.00454 kcal/mol | excess molar enthalpy ([2]; x2 = 0.802): 0.181 ± 0.00406 kcal/mol | excess molar enthalpy ([2]; x2 = 0.852): 0.148 ± 0.00335 kcal/mol | excess molar enthalpy ([2]; x2 = 0.901): 0.106 ± 0.00239 kcal/mol | excess molar enthalpy ([2]; x2 = 0.95): 0.0784 ± 0.00191 kcal/mol

CCCCCCCC [octane] + CCO
excess molar enthalpy ([2]; x2 = 0.028): 0.206 ± 0.00478 kcal/mol | excess molar enthalpy ([2]; x2 = 0.054): 0.257 ± 0.00574 kcal/mol | excess molar enthalpy ([2]; x2 = 0.104): 0.303 ± 0.00645 kcal/mol | excess molar enthalpy ([2]; x2 = 0.151): 0.326 ± 0.00693 kcal/mol | excess molar enthalpy ([2]; x2 = 0.201): 0.343 ± 0.00741 kcal/mol | excess molar enthalpy ([2]; x2 = 0.252): 0.355 ± 0.00765 kcal/mol | excess molar enthalpy ([2]; x2 = 0.304): 0.357 ± 0.00765 kcal/mol | excess molar enthalpy ([2]; x2 = 0.352): 0.355 ± 0.00765 kcal/mol | excess molar enthalpy ([2]; x2 = 0.404): 0.348 ± 0.00741 kcal/mol | excess molar enthalpy ([2]; x2 = 0.452): 0.337 ± 0.00717 kcal/mol | excess molar enthalpy ([2]; x2 = 0.502): 0.323 ± 0.00693 kcal/mol | excess molar enthalpy ([2]; x2 = 0.551): 0.307 ± 0.00669 kcal/mol | excess molar enthalpy ([2]; x2 = 0.601): 0.288 ± 0.00621 kcal/mol | excess molar enthalpy ([2]; x2 = 0.651): 0.267 ± 0.00574 kcal/mol | excess molar enthalpy ([2]; x2 = 0.7): 0.245 ± 0.00526 kcal/mol | excess molar enthalpy ([2]; x2 = 0.752): 0.217 ± 0.00478 kcal/mol | excess molar enthalpy ([2]; x2 = 0.801): 0.191 ± 0.00406 kcal/mol | excess molar enthalpy ([2]; x2 = 0.85): 0.16 ± 0.00359 kcal/mol | excess molar enthalpy ([2]; x2 = 0.901): 0.121 ± 0.00263 kcal/mol | excess molar enthalpy ([2]; x2 = 0.95): 0.0813 ± 0.00191 kcal/mol

CCCO [propan-1-ol]
mass density [1]: 803.63 ± 0.43 kg/m3
